{"source": "the supplement of paper PMC10307832", "experiment_in_all_cases": "relative viability (nuclei count vs DMSO), 5 days (fraction); higher = more cells survive", "key": {"[1]": {"system": "NCI-H1355", "how_it_was_run": "(§1)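 Values are medians from duplicate plates. Each reflects relative viability, defined as the nuclei count of treated wells over that of vehicle wells. Lung cancer cell lines in 1536-well plates were pin-tool dosed one day after seeding with one drug alone or with a fixed anchor-drug dose plus five library-drug doses (not always all listed) in √10 steps, then fixed, stained and imaged at 4× after 5 days.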"}, "[2]": {"system": "NCI-H2228", "how_it_was_run": "as §1"}, "[3]": {"system": "NCI-H1993", "how_it_was_run": "as §1"}, "[4]": {"system": "LOU-NH91", "how_it_was_run": "as §1"}, "[5]": {"system": "UMC-11", "how_it_was_run": "as §1"}, "[6]": {"system": "NCI-H1793", "how_it_was_run": "as §1"}, "[7]": {"system": "HCC-44", "how_it_was_run": "as §1"}, "[8]": {"system": "LCLC-103H", "how_it_was_run": "as §1"}, "[9]": {"system": "RERF-LC-KJ", "how_it_was_run": "as §1"}, "[10]": {"system": "NCI-H2170", "how_it_was_run": "as §1"}, "[11]": {"system": "EPLC-272H", "how_it_was_run": "as §1"}, "[12]": {"system": "SK-MES-1", "how_it_was_run": "as §1"}, "[13]": {"system": "HCC-827", "how_it_was_run": "as §1"}, "[14]": {"system": "NCI-H1755", "how_it_was_run": "as §1"}, "[15]": {"system": "HARA", "how_it_was_run": "as §1"}, "[16]": {"system": "NCI-H596", "how_it_was_run": "as §1"}, "[17]": {"system": "PC-3 [JPC-3]", "how_it_was_run": "as §1"}, "[18]": {"system": "NCI-H1975", "how_it_was_run": "as §1"}, "[19]": {"system": "NCI-H1651", "how_it_was_run": "as §1"}, "[20]": {"system": "NCI-H838", "how_it_was_run": "as §1"}, "[21]": {"system": "SW 1573", "how_it_was_run": "as §1"}, "[22]": {"system": "NCI-H520", "how_it_was_run": "as §1"}, "[23]": {"system": "COR-L 105", "how_it_was_run": "as §1"}}}
{"smiles": "Nc1cccc2c1CN(C1CCC(=O)NC1=O)C2=O", "note": "(configuration not stated) [Lenalidomide] + CCNC(=O)c1noc(-c2cc(C(C)C)c(O)cc2O)c1-c1ccc(CN2CCOCC2)cc1 [Luminespib] (partner 0.01 µM)", "values": [{"measurement": "relative viability", "setting": "[1]; first compound 0.253 µM", "result": 0.651}, {"measurement": "relative viability", "setting": "[1]; first compound 2.53 µM", "result": 0.812}, {"measurement": "relative viability", "setting": "[1]; first compound 8 µM", "result": 0.558}, {"measurement": "relative viability", "setting": "[2]; first compound 0.253 µM", "result": 0.156}, {"measurement": "relative viability", "setting": "[2]; first compound 0.8 µM", "result": 0.103}, {"measurement": "relative viability", "setting": "[2]; first compound 2.53 µM", "result": 0.115}, {"measurement": "relative viability", "setting": "[2]; first compound 8 µM", "result": 0.189}, {"measurement": "relative viability", "setting": "[3]; first compound 0.253 µM", "result": 0.66}, {"measurement": "relative viability", "setting": "[3]; first compound 0.8 µM", "result": 0.726}, {"measurement": "relative viability", "setting": "[3]; first compound 2.53 µM", "result": 0.767}, {"measurement": "relative viability", "setting": "[3]; first compound 8 µM", "result": 0.743}, {"measurement": "relative viability", "setting": "[4]; first compound 0.253 µM", "result": 0.343}, {"measurement": "relative viability", "setting": "[4]; first compound 0.8 µM", "result": 0.343}, {"measurement": "relative viability", "setting": "[4]; first compound 2.53 µM", "result": 0.313}, {"measurement": "relative viability", "setting": "[4]; first compound 8 µM", "result": 0.283}, {"measurement": "relative viability", "setting": "[5]; first compound 0.253 µM", "result": 1.02}, {"measurement": "relative viability", "setting": "[5]; first compound 0.8 µM", "result": 1.03}, {"measurement": "relative viability", "setting": "[5]; first compound 2.53 µM", "result": 1.04}, {"measurement": "relative viability", "setting": "[5]; first compound 8 µM", "result": 0.953}, {"measurement": "relative viability", "setting": "[6]; first compound 0.253 µM", "result": 0.173}, {"measurement": "relative viability", "setting": "[6]; first compound 2.53 µM", "result": 0.167}, {"measurement": "relative viability", "setting": "[6]; first compound 8 µM", "result": 0.165}, {"measurement": "relative viability", "setting": "[7]; first compound 0.253 µM", "result": 0.988}, {"measurement": "relative viability", "setting": "[7]; first compound 2.53 µM", "result": 1.4}, {"measurement": "relative viability", "setting": "[7]; first compound 8 µM", "result": 1.23}, {"measurement": "relative viability", "setting": "[8]; first compound 0.253 µM", "result": 1.02}, {"measurement": "relative viability", "setting": "[8]; first compound 0.8 µM", "result": 0.958}, {"measurement": "relative viability", "setting": "[8]; first compound 2.53 µM", "result": 1.17}, {"measurement": "relative viability", "setting": "[8]; first compound 8 µM", "result": 0.922}, {"measurement": "relative viability", "setting": "[9]; first compound 0.253 µM", "result": 1.28}, {"measurement": "relative viability", "setting": "[9]; first compound 0.8 µM", "result": 1.29}, {"measurement": "relative viability", "setting": "[9]; first compound 2.53 µM", "result": 1.12}, {"measurement": "relative viability", "setting": "[9]; first compound 8 µM", "result": 1.32}, {"measurement": "relative viability", "setting": "[10]; first compound 0.253 µM", "result": 0.683}, {"measurement": "relative viability", "setting": "[10]; first compound 0.8 µM", "result": 0.799}, {"measurement": "relative viability", "setting": "[10]; first compound 2.53 µM", "result": 0.588}, {"measurement": "relative viability", "setting": "[10]; first compound 8 µM", "result": 0.426}, {"measurement": "relative viability", "setting": "[11]; first compound 0.253 µM", "result": 0.341}, {"measurement": "relative viability", "setting": "[11]; first compound 0.8 µM", "result": 0.259}, {"measurement": "relative viability", "setting": "[11]; first compound 2.53 µM", "result": 0.276}, {"measurement": "relative viability", "setting": "[11]; first compound 8 µM", "result": 0.204}, {"measurement": "relative viability", "setting": "[12]; first compound 0.253 µM", "result": 0.777}, {"measurement": "relative viability", "setting": "[12]; first compound 0.8 µM", "result": 0.891}, {"measurement": "relative viability", "setting": "[12]; first compound 2.53 µM", "result": 0.886}, {"measurement": "relative viability", "setting": "[12]; first compound 8 µM", "result": 0.863}, {"measurement": "relative viability", "setting": "[13]; first compound 0.253 µM", "result": 0.661}, {"measurement": "relative viability", "setting": "[13]; first compound 0.8 µM", "result": 0.803}, {"measurement": "relative viability", "setting": "[13]; first compound 2.53 µM", "result": 0.838}, {"measurement": "relative viability", "setting": "[13]; first compound 8 µM", "result": 0.59}, {"measurement": "relative viability", "setting": "[14]; first compound 0.253 µM", "result": 0.422}, {"measurement": "relative viability", "setting": "[14]; first compound 0.8 µM", "result": 0.42}, {"measurement": "relative viability", "setting": "[14]; first compound 2.53 µM", "result": 0.596}, {"measurement": "relative viability", "setting": "[14]; first compound 8 µM", "result": 0.655}, {"measurement": "relative viability", "setting": "[15]; first compound 0.253 µM", "result": 0.679}, {"measurement": "relative viability", "setting": "[15]; first compound 2.53 µM", "result": 0.614}, {"measurement": "relative viability", "setting": "[15]; first compound 8 µM", "result": 1.03}, {"measurement": "relative viability", "setting": "[16]; first compound 0.253 µM", "result": 0.967}, {"measurement": "relative viability", "setting": "[16]; first compound 2.53 µM", "result": 1.29}, {"measurement": "relative viability", "setting": "[16]; first compound 8 µM", "result": 0.985}, {"measurement": "relative viability", "setting": "[17]; first compound 0.253 µM", "result": 0.651}, {"measurement": "relative viability", "setting": "[17]; first compound 0.8 µM", "result": 0.729}, {"measurement": "relative viability", "setting": "[17]; first compound 2.53 µM", "result": 0.616}, {"measurement": "relative viability", "setting": "[17]; first compound 8 µM", "result": 0.572}, {"measurement": "relative viability", "setting": "[18]; first compound 0.253 µM", "result": 0.194}, {"measurement": "relative viability", "setting": "[18]; first compound 0.8 µM", "result": 0.235}, {"measurement": "relative viability", "setting": "[18]; first compound 2.53 µM", "result": 0.251}, {"measurement": "relative viability", "setting": "[18]; first compound 8 µM", "result": 0.196}, {"measurement": "relative viability", "setting": "[19]; first compound 0.253 µM", "result": 0.713}, {"measurement": "relative viability", "setting": "[19]; first compound 0.8 µM", "result": 0.895}, {"measurement": "relative viability", "setting": "[19]; first compound 2.53 µM", "result": 0.987}, {"measurement": "relative viability", "setting": "[19]; first compound 8 µM", "result": 1.03}, {"measurement": "relative viability", "setting": "[20]; first compound 0.253 µM", "result": 0.338}, {"measurement": "relative viability", "setting": "[20]; first compound 0.8 µM", "result": 0.308}, {"measurement": "relative viability", "setting": "[20]; first compound 2.53 µM", "result": 0.269}, {"measurement": "relative viability", "setting": "[20]; first compound 8 µM", "result": 0.4}, {"measurement": "relative viability", "setting": "[21]; first compound 0.253 µM", "result": 0.538}, {"measurement": "relative viability", "setting": "[21]; first compound 0.8 µM", "result": 0.198}, {"measurement": "relative viability", "setting": "[21]; first compound 2.53 µM", "result": 0.162}, {"measurement": "relative viability", "setting": "[21]; first compound 8 µM", "result": 0.366}, {"measurement": "relative viability", "setting": "[22]; first compound 0.253 µM", "result": 0.214}, {"measurement": "relative viability", "setting": "[22]; first compound 0.8 µM", "result": 0.222}, {"measurement": "relative viability", "setting": "[22]; first compound 2.53 µM", "result": 0.218}, {"measurement": "relative viability", "setting": "[22]; first compound 8 µM", "result": 0.267}, {"measurement": "relative viability", "setting": "[23]; first compound 0.253 µM", "result": 0.891}, {"measurement": "relative viability", "setting": "[23]; first compound 0.8 µM", "result": 0.574}, {"measurement": "relative viability", "setting": "[23]; first compound 2.53 µM", "result": 0.836}, {"measurement": "relative viability", "setting": "[23]; first compound 8 µM", "result": 0.994}]}
